This note sets out measurements from patent US8815806B2, “Yellow pea seed protein-derived peptides” (University of Manitoba, priority 2009, dated 2014).

Assay [1] concerns spontaneously hypertensive rats (SHR). The assay can be described thus: Spontaneously hypertensive rats, oral gavage, systolic blood pressure by tail-cuff. The format is in vivo, rat. The note with it: for change in systolic blood pressure (ΔSBP): 24 hour after oral gavage, 30 mg/kg BW; for hypotensive activities, duration of effect: over a 24 hr period, oral 30 mg/kg BW, FIG. 16. As for the experimental part: Animal experiments were carried out following the Canadian Council on Animal Care ethics guidelines with a protocol approved by the University of Manitoba Animal Protocol and Management Review Committee. The spontaneously hypertensive rats (SHR) were kept in the Animal Housing Facility at the Richardson Centre for Functional Foods and Nutraceuticals, University of Manitoba under a 12-hr day and night cycle at 21° C. and were fed a regular chow diet and tap water, ad libitum. The SHR were divided into […] that received the following treatments (dissolved in phosphate buffered saline, pH 7.2): ADMFPF (SEQ ID NO. 23) peptide (n=6), WMP (SEQ ID NO. 15) peptide (n=6), captopril (positive control, n=6), saline (negative control, n=6). The peptides (each at 30 mg/kg body weight, BW) and captopril (3 mg/kg BW) were administered to the SHR by oral gavage followed by measurement of systolic blood pressure (SBP) at 2, 4, 6, 8 and 24 hr by the tail-cuff method in slightly anesthesized rats. Prior to sample administration, the baseline (time zero) SBP was determined. In order to mitigate the blood pressure (BP) depression effect of isofluorane, the gas flow was optimized such that rats became conscious usually within 3-4 min after removal from the chamber, which provided enough time to perform the blood pressure measurement. Rats were first anesthesized in a chamber (maintained at about 40° C.) with 4% isofluorane for 4 min. They were then removed from the isofluorane chamber and tail-cuff measurement of blood pressure performed in the […]. The change in SBP (ΔSBP, mmHg) was determined by subtracting the data for the different time points from their respective baseline data.

A further assay addresses T1, human recombinant renin (Homo sapiens, UniProt P00797).
T1 construct: purchased Cayman Chemical; host or cells: HEK cells
T1 sequence (P00797 67-406): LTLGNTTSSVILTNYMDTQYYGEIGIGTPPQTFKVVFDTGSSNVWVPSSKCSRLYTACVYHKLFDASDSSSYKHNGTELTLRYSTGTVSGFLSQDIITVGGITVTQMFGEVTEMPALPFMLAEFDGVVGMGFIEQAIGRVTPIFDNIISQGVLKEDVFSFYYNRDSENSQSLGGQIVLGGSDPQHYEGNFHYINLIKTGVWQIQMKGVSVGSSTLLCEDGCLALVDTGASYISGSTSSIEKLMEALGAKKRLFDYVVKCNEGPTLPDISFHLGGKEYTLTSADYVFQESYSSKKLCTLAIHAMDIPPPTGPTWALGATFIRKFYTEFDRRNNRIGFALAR
The assay is described as follows: Renin inhibitory activity assay (fluorometric). In kind it is biochemical. Particulars: Table 1; peptide concentration not given. As for the experimental part: Renin inhibitory activity assays were carried out on a Shimadzu RF 1501 spectrofluorometer equipped with thermostated cell holder according to the method of Wang, Chung, Holzman, & Krafft (1993) with some modifications (FIG. 5 and Table 1). The following instrumental parameters were used: excitation wavelength, 340 nm; emission wavelength, 490 nm; excitation and emission bandwidth, 10 nm. A standard 2 mL, 1 cm pathlength cuvettes containing 1 mL of buffer (or 1 mL varied peptide concentrations) and 1 mL of 2.5 μM substrate, was equilibrated at 37° C. for 5 min to gain thermal equilibrium. A 15 μL of renin (0.4 μg renin) was then added to the cuvette to initiate the reaction. The time dependent increase of fluorescence intensity was monitored for 5 min. The initial reaction velocity, expressed in arbitrary fluorescence units per minute (FU/min), was calculated by least-squares analysis of the initial phase of the reaction. The renin inhibiting activity of the peptide fractions and the individual peptides within are described in Table 1.
Renin inhibiting assay was modified from the fluorometric assay developed for renin activity measurement (FIG. 5). […] The Michaelis-Menten constant (Km) in our study is 3.8 μM for human recombinant renin in the absence of peptide fractions. This value is close to the reported KM of 3.6 μM using the same source of renin and substrate under similar assay conditions (Holzman et al 1991). However, Km of human recombinant renin was also reported to be 1.62 μM (Toshihisa et al., 1992), or 1.25 μM in purified human renal renin acting on pure human plasma angiotensingen at pH 5.7 (Cumin et al., 1987), 1.54 μM at pH 6.5 (Slater and Strout 1981). The Km value for the reaction between renin and substrate also depends on pH, ionic strength, the medium and the assay procedure used (Poulsen et al., 1976). The Michaelis-Menten constants were increased to 6.3 and 6.1 μM, respectively in the presence of peptide fractions of T4 and T5, indicating decreased binding ability between renin and substrate because of the presence of competitive peptide inhibitors.

Take `C[C@H](CS)C(=O)N1CCC[C@H]1C(=O)O` [Captopril, captopril, reference compound]: the “hypotensive effect compared to ADMFPF” value in assay [1] (after 24 hour, captopril 3 mg/kg BW oral) is recorded as “less effective”.

As to “ADMFPF (listed as Pisum sativum) [SEQ ID NO. 23]”, in assay [1], the “change in systolic blood pressure (ΔSBP)” value was −25 mmHg and the “hypotensive activities, duration of effect” value is given as “comparable to captopril”.

As to “SEQ ID NO. 13: peptide identified within the bioactive fractions of yellow pea protein hydrolysate (WLP; listed as Pisum sativum)”, in the assay with human recombinant renin, the “RENIN INHIBITION %” value amounted to 4.85%.

With “SEQ ID NO. 14: peptide identified within the bioactive fractions of yellow pea protein hydrolysate (RAAP; listed as Pisum sativum)”, the “RENIN INHIBITION %” value with human recombinant renin worked out at 15.39%.

As for “SEQ ID NO. 17: peptide identified within the bioactive fractions of yellow pea protein hydrolysate (RSPD; listed as Pisum sativum)”, in the assay with human recombinant renin, the “RENIN INHIBITION %” value is reported as 57.53%.

As for “SEQ ID NO. 18: peptide identified within the bioactive fractions of yellow pea protein hydrolysate (WPHT; listed as Pisum sativum)”, in the assay with human recombinant renin, the “RENIN INHIBITION %” value amounted to 9.30%.

Regarding “SEQ ID NO. 19: peptide identified within the bioactive fractions of yellow pea protein hydrolysate (YPRE; listed as Pisum sativum)”, the “RENIN INHIBITION %” value in the assay with human recombinant renin is on record as 22.19%.

For the molecule “WMP (listed as Pisum sativum) [SEQ ID NO. 15]”, the “RENIN INHIBITION %” value in the assay with human recombinant renin came to 43.37%. In assay [1], the “change in systolic blood pressure (ΔSBP)” value was −14 mmHg and the “hypotensive activities, duration of effect” value is “comparable to captopril”. In assay [1] (up to 8 hours after oral administration), the “hypotensive effects compared with ADMFPF” value was “initial higher hypotensive effects”.
